Data set [1] is described as follows: Comparison of milk-solubility of CoQ10 and CDQ10 (saturation, HPLC). The note with it: fresh milk 3.5% milk fat, room temperature, addition till saturation, filtrate. Format: physicochemical. How it is done:
β-Cyclodextrin (1.575 g, 1.39 mmole) was dissolved in 13 mL of distilled water at 60-70° C. Then 1.00 g (1.16 mmole) of CoQ10 were added to the dissolved β-cyclodextrin, and the mixture was stirred for 20 minutes at 60-70° C. After stirring for some minutes the CDQ10 complex started to precipitate. The reaction mixture was kept stirring for about 8 hours at 60-70° C., and about 2 hours at room temperature, till the formation of a homogenous paste. Then the obtained mixture was under stirring at room temperature added to fresh milk containing 3.5% of milk fat (Ljubljanske mlekarne) till saturation. Into another milk aliquot was added under identical conditions CoQ10 till saturation. […]

Data set [2] is described as follows: Dissolution of CoQ10 in dairy products and orange juice. In kind it is physicochemical. The note with it: about 35-37 mg CoQ10 in about 200 g product. The protocol: β-Cyclodextrin (7.90 g, 6.95 mmole) was dissolved in distilled water (68 mL) at 65-70° C., and under stirring was added CoQ10 (5.00 g, 5.79 mmole). After about 30 minutes the CDQ10 complex precipitated. The reaction mixture was kept stirring for about 10 hours at 70° C., and 10 hours at room temperature, till the formation of an intensive yellow coloured paste. Then equal aliquots (each 500 μL containing about 37 mg of CoQ10 in the form of CDQ10) of the obtained mixture were admixed to about 200 g each: milk (3.5% of milk fat, Ljubljanske miekarne), liquid yoghurt (1.3% of milk fat, Ljubljanske miekarne), fruit yoghurt (peach, Ljubljanske miekarne) and orange juice (100%, Rauch). The obtained preparations were organoleptically compared with non-lemented supplemented milk, liquid yoghurt, fruit yoghurt and orange juice, as well as with those supplemented each with about 35-37 mg CoQ10. As CoQ10 was not dissolved in said products, they were not included in the tests. The tests were performed by 10-21 randomly chosen consumers.

Each structure is given as a SMILES string.

`COC1=C(OC)C(=O)C(C/C=C(\C)CC/C=C(\C)CC/C=C(\C)CC/C=C(\C)CC/C=C(\C)CC/C=C(\C)CC/C=C(\C)CC/C=C(\C)CC/C=C(\C)CCC=C(C)C)=C(C)C1=O` [CoQ10, coenzyme Q10]: the “Concentration of CoQ10 in milk” value in data set [1] was 3.2 µg/g. The “dissolution in milk, liquid yoghurt, fruit yoghurt and orange juice” value in data set [2] is on record as “not dissolved”.

The record behind these values is patent US20070202090A1, “Water Soluble Form Of Coenzyme Q10 In The Form Of An Inclusion Complex With Beta-Cyclodextrin, Process Of Preparing, And Use Thereof” (priority 2004, published 2007).
